In patent US7148229B2, “Sulfonamide substituted xanthine derivatives” (Hoffman-La Roche Inc., priority 2003, dated 2006):
Counter-ions that a name gives are not always drawn.

Target: T1, recombinant human cytosolic PEPCK (GST-PEPCK) (Homo sapiens, UniProt P35558)
T1 construct: made in house; host or cells: E. coli
T1 sequence (P35558 1-622): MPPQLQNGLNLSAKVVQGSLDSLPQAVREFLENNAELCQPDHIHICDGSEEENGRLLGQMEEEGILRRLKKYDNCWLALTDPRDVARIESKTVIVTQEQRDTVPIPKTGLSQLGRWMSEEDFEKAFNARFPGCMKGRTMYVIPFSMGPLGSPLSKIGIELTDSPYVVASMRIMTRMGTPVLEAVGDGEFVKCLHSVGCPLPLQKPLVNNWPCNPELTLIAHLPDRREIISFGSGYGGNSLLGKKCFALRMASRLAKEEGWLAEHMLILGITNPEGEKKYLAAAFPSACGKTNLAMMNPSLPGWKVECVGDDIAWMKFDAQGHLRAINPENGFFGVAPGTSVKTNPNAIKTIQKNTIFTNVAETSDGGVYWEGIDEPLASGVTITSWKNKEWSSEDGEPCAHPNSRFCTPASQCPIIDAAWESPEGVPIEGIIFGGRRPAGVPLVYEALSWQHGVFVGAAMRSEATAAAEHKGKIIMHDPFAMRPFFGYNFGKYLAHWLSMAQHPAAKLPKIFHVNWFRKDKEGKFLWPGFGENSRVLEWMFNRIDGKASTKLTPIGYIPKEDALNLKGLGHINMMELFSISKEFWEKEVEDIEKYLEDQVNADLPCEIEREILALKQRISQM
Assay: PEPCK enzyme assay (coupled to pyruvate kinase / lactate dehydrogenase, absorbance at 340 nm)
Assay type: biochemical
Conditions: in vitro PEPCK enzymatic assay; GTP at 3 fold and OAA at 10 fold Km; final DMSO 10%; room temperature, twenty minutes
Method: E. coli cells expressing GST-PEPCK were suspended in 5 volumes of lysis buffer (50 mM Tris-hydroxymethyl aminomethyl (TRIS), 150 mM sodium chloride (NaCl), 10 mM ethylene-diametetraacetic acid (EDTA), 5 mM dithiothreitol(DTT), 1% Nonidet P-40, pH 7.4) in the presence of protease inhibitors, incubated with lysozyme at 200 micrograms/ml for 30 min. at room temperature, and sonicated 4×30 seconds at 4 degrees C. After centrifugation at 12,000×g for 20 min. to remove insoluble material, the supernatant was loaded onto glutathione Sepharose (Pharmacia), washed with lysis buffer followed by washing with lysis buffer in the absence of NP-40. GST-PEPCK was eluted with the same buffer containing 20 mM glutathione. The eluted protein was concentrated and dialyzed against 25 mM Hepes(N-[2-hydroxyethyl]piperazine-N′[2-ethanesulfonic acid), 150 mM NaCl, 2.5 mM EDTA, 5 mM DTT, 30% glycerol, pH 7.4, and stored at −20° C.
The inhibitory effect of the compounds of the present invention on PEPCK enzymatic activity was determined using recombinant human cytosolic PEPCK, expressed and purified from E.coli as a GST-fusion. Guanosine triphosphate (GTP) and manganese dependent PEPCK enzyme activity catalyzed the decarboxylation of oxalacetate leading to the formation of guanosine diphosphate (GDP) and phosphoenol pyruvate (PEP). This reaction is coupled to pyruvate kinase and lactate dehydrogenase catalyzed reactions and the overall reaction rate determined by measuring the change in absorbance at 340 nm (Chang, H. C. and Lane M. D., J. Biol. Chem. 241:2413–2420, 1966). The following modifications were made to the protocol: 2.5 μg of recombinant, human cytosolic glutathione-S-transferase (GST)-PEPCK was added to a reaction mixture at room temperature which contained 0.3 mM GTP, 0.3 mM oxaloacetate (OAA), 3 mM magnesium chloride (MgCl2), 0.075 mM manganese chloride (MnCl2), 30 mM potassium phosphates (KPO4), pH 7.6, 1 mM dithiothreitol (DTT), 0.2 mM adenosine diphosphate (ADP), 1 mM nicotinamide adenine dinucleotide, reduced form (NADH), 0.9 Units/ml each of pyruvate kinase and lactate dehydrogenase and 1 mg/ml bovine serum albumin (BSA). Test compounds were added such that final concentration of DMSO was 10%. Reactions were run for twenty minutes.
Km values for GTP and OAA were determined according to Michelis-Menton conditions as described in Comish-Bowden (Fundamentals of Enzyme Kinetics, 1995) in essentially the coupled assay conditions described above. […] Test compounds were added to reactions over a range of concentrations and IC50's were calculated from plots of inhibitor concentration versus enzyme rate. This method of determination of IC50 values is equally applicable to calculations based on PEPCK cellular assay.

| Compound | IC50 [nM] |
| --- | --- |
| Cc1nn(C)c(Cl)c1S(=O)(=O)Nc1ccc(Cc2nc3c([nH]2)c(=O)n(Cc2ccccc2F)c(=O)n3CC2CC2)cc1 [Example 1, 5-Chloro-1,3-dimethyl-1H-pyrazole-4-sulfonic acid {4-[3-cyclopropylmethyl-1-(2-fluoro-benzyl)-2,6-dioxo-2,3,6,7-tetrahydro-1H-purin-8-ylmethyl]-phenyl}-amide] | 290 |
| Cn1cc(S(=O)(=O)Nc2ccc(Cc3nc4c([nH]3)c(=O)n(Cc3ccccc3F)c(=O)n4CC3CC3)cc2)cn1 [Example 2, 1-Methyl-1H-pyrazole-4-sulfonic acid {4-[3-cyclopropylmethyl-1-(2-fluoro-benzyl)-2,6-dioxo-2,3,6,7-tetrahydro-1H-purin-8-ylmethyl]-phenyl}-amide] | 390 |
| Cc1nn(C)c(Cl)c1S(=O)(=O)Nc1cccc(Cc2nc3c([nH]2)c(=O)n(Cc2ccccc2F)c(=O)n3CC2CC2)c1 [Example 6, 5-Chloro-1,3-dimethyl-1H-pyrazole-4-sulfonic acid {3-[3-cyclopropylmethyl-1-(2-fluoro-benzyl)-2,6-dioxo-2,3,6,7-tetrahydro-1H-purin-8-ylmethyl]-phenyl}-amide] | 1100 |
| CC(=O)Nc1nc(C)c(S(=O)(=O)Nc2ccc(Cc3nc4c([nH]3)c(=O)n(Cc3ccccc3F)c(=O)n4CC3CC3)cc2)s1 [Example 10, N-(5-{4-[3-Cyclopropylmethyl-1-(2-fluoro-benzyl)-2,6-dioxo-2,3,6,7-tetrahydro-1H-purin-8-ylmethyl]-phenylsulfamoyl}-4-methyl-thiazol-2-yl)-acetamide] | 220 |
| Cc1nc(N)sc1S(=O)(=O)Nc1ccc(Cc2nc3c([nH]2)c(=O)n(Cc2ccccc2F)c(=O)n3CC2CC2)cc1 [Example 11, 2-Amino-4-methyl-thiazole-5-sulfonic acid {4-[3-cyclopropylmethyl-1-(2-fluoro-benzyl)-2,6-dioxo-2,3,6,7-tetrahydro-1H-purin-8-ylmethyl]-phenyl}-amide trifluoro-acetic acid salt] | 230 |
| Cc1noc(C)c1S(=O)(=O)Nc1ccc(Cc2nc3c([nH]2)c(=O)n(Cc2ccccc2F)c(=O)n3CC2CC2)cc1 [Example 12, 3,5-Dimethyl-isoxazole-4-sulfonic acid {4-[3-cyclopropylmethyl-1-(2-fluoro-benzyl)-2,6-dioxo-2,3,6,7-tetrahydro-1H-purin-8-ylmethyl]-phenyl}-amide] | 790 |
| CN(C)S(=O)(=O)Nc1ccc(Cc2nc3c([nH]2)c(=O)n(Cc2ccccc2F)c(=O)n3CC2CC2)cc1 [Example 17, N-{4-[3-Cyclopropylmethyl-1-(2-fluoro-benzyl)-2,6-dioxo-2,3,6,7-tetrahydro-1H-purin-8-ylmethyl]-phenyl}-N,N-dimethylsulfamide] | 960 |
| Cc1nn(C)c(Cl)c1S(=O)(=O)N(C)c1ccc(Cc2nc3c([nH]2)c(=O)n(Cc2ccccc2F)c(=O)n3CC2CC2)cc1 [Example 18, 5-Chloro-1,3-dimethyl-1H-pyrazole-4-sulfonic acid {4-[3-cyclopropylmethyl-1-(2-fluoro-benzyl)-2,6-dioxo-2,3,6,7-tetrahydro-1H-purin-8-ylmethyl]-phenyl}-methyl-amide] | 2050 |
| CCCCn1c(=O)n(Cc2ccccc2)c(=O)c2[nH]c(Cc3ccc(NS(=O)(=O)c4ccc(C)cc4)cc3)nc21 [Example 21, N-[4-(1-Benzyl-3-butyl-2,6-dioxo-2,3,6,7-tetrahydro-1H-purin-8-ylmethyl)-phenyl]-4-methyl-benzenesulfonamide] | 7650 |

Next, values leading:

| IC50 [nM] | Compound |
| --- | --- |
| 1200 | COc1cccc(S(=O)(=O)Nc2ccc(Cc3nc4c([nH]3)c(=O)n(Cc3ccccc3F)c(=O)n4CC3CC3)cc2)c1 [Example 3, N-{4-[3-Cyclopropylmethyl-1-(2-fluoro-benzyl)-2,6-dioxo-2,3,6,7-tetrahydro-1H-purin-8-ylmethyl]-phenyl}-3-methoxy-benzenesulfonamide] |
| 2550 | O=c1c2[nH]c(Cc3ccc(NS(=O)(=O)c4cccc(F)c4)cc3)nc2n(CC2CC2)c(=O)n1Cc1ccccc1F [Example 4, N-{4-[3-Cyclopropylmethyl-1-(2-fluoro-benzyl)-2,6-dioxo-2,3,6,7-tetrahydro-1H-purin-8-ylmethyl]-phenyl}-3-fluoro-benzenesulfonamide] |
| 4580 | O=c1c2[nH]c(Cc3ccc(NS(=O)(=O)c4cnc(Cl)c(Br)c4)cc3)nc2n(CC2CC2)c(=O)n1Cc1ccccc1F [Example 5, 5-Bromo-6-chloro-pyridine-3-sulfonic acid {4-[3-cyclopropylmethyl-1-(2-fluoro-benzyl)-2,6-dioxo-2,3,6,7-tetrahydro-1H-purin-8-ylmethyl]-phenyl}-amide] |
| 150 | Cc1nn(C)cc1S(=O)(=O)Nc1ccc(Cc2nc3c([nH]2)c(=O)n(Cc2ccccc2F)c(=O)n3CC2CC2)cc1 [Example 7, 1,3-Dimethyl-1H-pyrazole-4-sulfonic acid {4-[3-cyclopropylmethyl-1-(2-fluoro-benzyl)-2,6-dioxo-2,3,6,7-tetrahydro-1H-purin-8-ylmethyl]-phenyl}-amide] |
| 340 | Cc1nc(S(=O)(=O)Nc2ccc(Cc3nc4c([nH]3)c(=O)n(Cc3ccccc3F)c(=O)n4CC3CC3)cc2)cn1C [Example 13, 1,2-Dimethyl-1H-imidazole-4-sulfonic acid {4-[3-cyclopropylmethyl-1-(2-fluoro-benzyl)-2,6-dioxo-2,3,6,7-tetrahydro-1H-purin-8-ylmethyl]-phenyl}-amide] |
| 410 | Cn1cnc(S(=O)(=O)Nc2ccc(Cc3nc4c([nH]3)c(=O)n(Cc3ccccc3F)c(=O)n4CC3CC3)cc2)c1 [Example 14, 1-Methyl-1H-imidazole-4-sulfonic acid {4-[3-cyclopropylmethyl-1-(2-fluoro-benzyl)-2,6-dioxo-2,3,6,7-tetrahydro-1H-purin-8-ylmethyl]-phenyl}-amide] |
| 450 | O=c1c2[nH]c(Cc3ccc(NS(=O)(=O)c4cccc5cccnc45)cc3)nc2n(CC2CC2)c(=O)n1Cc1ccccc1F [Example 19, Quinoline-8-sulfonic acid {4-[3-cyclopropylmethyl-1-(2-fluoro-benzyl)-2,6-dioxo-2,3,6,7-tetrahydro-1H-purin-8-ylmethyl]-phenyl}-amide] |
| 6250 | CC(=O)Nc1ccc(S(=O)(=O)Nc2ccc(Cc3nc4c([nH]3)c(=O)n(Cc3ccccc3F)c(=O)n4CC3CC3)cc2)cc1 [Example 20, N-(4-{4-[3-Cyclopropylmethyl-1-(2-fluoro-benzyl)-2,6-dioxo-2,3,6,7-tetrahydro-1H-purin-8-ylmethyl]-phenylsulfamoyl}-phenyl)-acetamide] |
| 1950 | O=c1c2[nH]c(Cc3ccc(NS(=O)(=O)c4cccnc4)cc3)nc2n(CC2CC2)c(=O)n1Cc1ccccc1F [Example 22, Pyridine-3-sulfonic acid {4-[3-cyclopropylmethyl-1-(2-fluoro-benzyl)-2,6-dioxo-2,3,6,7-tetrahydro-1H-purin-8-ylmethyl]-phenyl}-amide trifluoro-acetic acid salt] |
| 1250 | CS(=O)(=O)Nc1ccc(Cc2nc3c([nH]2)c(=O)n(Cc2ccccc2F)c(=O)n3CC2CC2)cc1 [Example 23, N-{4-[3-Cyclopropylmethyl-1-(2-fluoro-benzyl)-2,6-dioxo-2,3,6,7-tetrahydro-1H-purin-8-ylmethyl]-phenyl}-methanesulfonamide] |
